Experimental data from article PMC11123956, “Nobiletin Stimulates Adrenal Hormones and Modulates the Circadian Clock in Mice” (Nutrients, 2024).

How the values were obtained:
[1] = tested on: Per1 mRNA; test: Real-time RT-PCR of Per1 mRNA in peripheral tissues; format: in vivo, mice
Procedure: (§1) Male C57BL/6J mice (7 weeks old) were purchased from Charles River Japan (Kanagawa, Japan) and used for the serum hormone assay and RT-PCR. Male ICR mice were purchased from Tokyo Laboratory Animals Science Co., Ltd. (Tokyo, Japan), and female PERIOD2::LUCIFERASE (PER2::LUC) knock-in mice (ICR background) bred at Waseda University were used for blood glucose measurements and in vivo imaging assays, respectively. The mice were all housed under conditions of controlled temperature (23 °C ± 3 °C), humidity (50% ± 20%), and lighting (lights on from 07:00 to 19:00 at Taisho Pharmaceutical Co., Ltd. or from 08:00 to 20:00 at Waseda University). In the 24 h cycle, Zeitgeber time 0 (ZT0) was designated as the time when the lights were turned on, and ZT12 was designated as the time when the lights were turned off. All the mice were given access to food and tap water ad libitum, and nobiletin (10–100 mg/kg; purchased from FUJIFILM Wako Pure Chemical Corporation, Osaka, Japan) was administered by intraperitoneal (i.p.) injection in the vehicle (10 mL/kg body weight) containing 0.5% carboxymethyl cellulose (CMC). Rolipram (PDE4 inhibitor, FUJIFILM Wako Pure Chemical Corporation) and SR1078 (RORα/γ agonist, FUJIFILM Wako Pure Chemical Corporation) were also used for the experiment at 10 mg/kg in 0.5% CMC [12]. Mice were euthanized by rapid decapitation for whole blood samples.
(§2) Figure 3 Nobiletin stimulated adrenaline and corticosterone secretion, and induced acute clock gene expression changes. (A–C) Mice received intraperitoneal injections of control (0.5% CMC) or nobiletin (10 or 100 mg/kg) at ZT3. (A) Serum corticosterone at 1 h after treatment (n = 6 in each). $$$ p < 0.001 by Tukey’s multiple comparisons test. (B) Serum corticosterone and adrenaline at 1, 2, and 4 h after treatment (n = 4 in each). # p < 0.05 vs. control at each time point by Mann–Whitney test; ** p < 0.01 vs. control at each time point by Student’s t-test. (C) Blood glucose changes after treatment (n = 9 in each). Statistics of 2-way repeated ANOVA are indicated on the graph. […]

[2] = tested on: Bmal1 mRNA; test: Real-time RT-PCR of Bmal1 mRNA in peripheral tissues; format: in vivo, mice; details: after a single treatment
Procedure: as §1, §2

[3] = tested on: PDE3; set-up: method as in PMID 19906817; details: cited from earlier work
[4] = set-up: method as in doi:10.1016/j.jddst.2022.104013; details: rats; cited from earlier work

Compound: COc1ccc(-c2cc(=O)c3c(OC)c(OC)c(OC)c(OC)c3o2)cc1OC [nobiletin]
- Per1 mRNA upregulation ([1]; 4 h after treatment (stomach)): diminished
- Per1 mRNA ([1]; kidney, liver (1 h) and stomach (2 h) after treatment): upregulated
- Bmal1 expression [2]: did not change significantly
- IC50 [3]: 10.4 µM
- time of the highest plasma concentration [4]: 2 to 4 h
